# ChEMBL document CHEMBL5365481, “Design, Synthesis, and Activity Evaluation of Novel Dual-Target Inhibitors with Antifungal and Immunoregulatory Properties” (J Med Chem, 2023)
# Calls of active or inactive are those of the source. No cut-off for these calls is given here.
# What was measured:
# Candida albicans [1] = experiment: In vivo antifungal activity against Candida albicans ATCC SC5314 infected in BALB/c mouse assessed as increase in body weight at 10 ug, ip for 14 days in presence of Biphenyl isopropyl ester; format: functional, organism-based; conditions: dose 10.0 µg, time 14.0 day
# Candida albicans [2] = experiment: In vivo antifungal activity against Candida albicans ATCC SC5314 infected in BALB/c mouse assessed as decrease in number of exogenous fungal cells at 10 ug, ip for 14 days in presence of Biphenyl isopropyl ester by H and E staining based microscopy; format: functional, organism-based; conditions: dose 10.0 µg, time 14.0 day
# Candida albicans [3] = experiment: In vivo antifungal activity against Candida albicans ATCC SC5314 infected in BALB/c mouse assessed as disappearance of nuclei aggregation at 10 ug, ip for 14 days in presence of Biphenyl isopropyl ester by GMS staining based microscopy; format: functional, organism-based; conditions: dose 10.0 µg, time 14.0 day
# Candida albicans [4] = experiment: In vivo antifungal activity against Candida albicans ATCC SC5314 infected in BALB/c mouse assessed as reversal of cell morphology to normal state at 10 ug, ip for 14 days in presence of Biphenyl isopropyl ester by GMS staining based microscopy; format: functional, organism-based; conditions: dose 10.0 µg, time 14.0 day
# Candida albicans [5] = experiment: In vivo antifungal activity against Candida albicans ATCC SC5314 infected in BALB/c mouse assessed as decrease in necrotic cell debris in tissue gap at 10 ug, ip for 14 days in presence of Biphenyl isopropyl ester by GMS staining based microscopy; format: functional, organism-based; conditions: dose 10.0 µg, time 14.0 day
# [6] = Toxicity in BALB/c mouse infected with Candida albicans ATCC SC5314 assessed as morphological changes in kidney at 10 ug, ip for 14 days in presence of Biphenyl isopropyl ester by H and E staining based microscopy; format: organism-based; conditions: in vivo, 336 h, dose 10 µg, time 14 day
# [7] = Toxicity in BALB/c mouse infected with Candida albicans ATCC SC5314 assessed as plasma AST level at 10 ug, ip for 14 days in presence of Biphenyl isopropyl ester; format: organism-based; conditions: in vivo, 336 h, dose 10 µg, time 14 day
# Candida albicans [8] = experiment: In vivo antifungal activity against Candida albicans ATCC SC5314 infected in BALB/c mouse assessed as decrease in COX2 expression level at 10 ug, ip for 14 days in presence of Biphenyl isopropyl ester by Western blot analysis; format: functional, organism-based; conditions: dose 10.0 µg, time 14.0 day
# Candida albicans [9] = experiment: In vivo antifungal activity against Candida albicans ATCC SC5314 infected in BALB/c mouse assessed as decrease in NLRP3 expression level at 10 ug, ip for 14 days in presence of Biphenyl isopropyl ester by Western blot analysis; format: functional, organism-based; conditions: dose 10.0 µg, time 14.0 day
# Candida albicans [10] = experiment: In vivo antifungal activity against Candida albicans ATCC SC5314 infected in BALB/c mouse assessed as decrease in IFN-gamma expression level at 10 ug, ip for 14 days in presence of Biphenyl isopropyl ester by Western blot analysis; format: functional, organism-based; conditions: dose 10.0 µg, time 14.0 day
# Candida albicans [11] = experiment: In vivo antifungal activity against Candida albicans ATCC SC5314 infected in BALB/c mouse assessed as decrease in COX2 expression level at 10 ug, ip for 14 days in presence of Biphenyl isopropyl ester by immunohistochemical analysis; format: functional, organism-based; conditions: dose 10.0 µg, time 14.0 day
# Candida albicans [12] = experiment: In vivo antifungal activity against Candida albicans ATCC SC5314 infected in BALB/c mouse assessed as decrease in IL-2 expression level at 10 ug, ip for 14 days in presence of Biphenyl isopropyl ester by immunohistochemical analysis; format: functional, organism-based; conditions: dose 10.0 µg, time 14.0 day
# Candida albicans [13] = experiment: In vivo antifungal activity against Candida albicans ATCC SC5314 infected in BALB/c mouse assessed as decrease in PD-L1 expression level at 10 ug, ip for 14 days in presence of Biphenyl isopropyl ester by Western blot analysis; format: functional, organism-based; conditions: dose 10.0 µg, time 14.0 day
# Candida albicans [14] = experiment: In vivo antifungal activity against Candida albicans ATCC SC5314 infected in BALB/c mouse assessed as fold increase in CD8+ expression level in T cells at 10 ug, ip for 14 days in presence of Biphenyl isopropyl ester by immunohistochemical analysis; format: functional, T-cell; conditions: dose 10 µg, time 14 day
# Cell membrane [15] = experiment: Induction of cell membrane integrity disruption in Candida albicans ATCC SC5314 assessed as decrease in cell wall thickness at 1 microM/ml incubated for 48 to 72 hrs by TEM analysis; format: subcellular; conditions: time 48-72 hrs
# Cell membrane [16] = experiment: Induction of cell membrane integrity disruption in Candida albicans ATCC SC5314 assessed as decrease in cell membrane thickness at 1 microM/ml incubated for 48 to 72 hrs by TEM analysis; format: subcellular; conditions: time 48-72 hrs
# Cell membrane [17] = experiment: Induction of cell membrane integrity disruption in Candida albicans ATCC SC5314 assessed as reduced cytoplasmic density at 1 microM/ml incubated for 48 to 72 hrs by TEM analysis; format: subcellular; conditions: time 48-72 hrs
# Cell membrane [18] = experiment: Induction of cell membrane integrity disruption in Candida albicans ATCC SC5314 assessed as edema vacuoles at 1 microM/ml incubated for 48 to 72 hrs by TEM analysis; format: subcellular; conditions: time 48-72 hrs
# Cell membrane [19] = experiment: Induction of cell membrane integrity disruption in Candida albicans ATCC SC5314 assessed as seepage of cell contents into external region at 1 microM/ml incubated for 96 hrs by TEM analysis; format: subcellular
SMILES,Activity (Candida albicans [1]),Activity (Candida albicans [2]),Activity (Candida albicans [3]),Activity (Candida albicans [4]),Activity (Candida albicans [5]),Activity [6],Activity [7],Activity (Candida albicans [8]),Activity (Candida albicans [9]),Activity (Candida albicans [10]),Activity (Candida albicans [11]),Activity (Candida albicans [12]),Activity (Candida albicans [13]),fold change (FC) (Candida albicans [14]),Activity (Cell membrane [15]),Activity (Cell membrane [16]),Activity (Cell membrane [17]),Activity (Cell membrane [18]),Activity (Cell membrane [19])
OC(Cn1cncn1)(Cn1cncn1)c1ccc(F)cc1F [FLUCONAZOLE],Active,Active,Active,Active,Active,Non-Toxic,71.9 IU/L,Active,Active,Active,Active,Active,Active,1.46,–,–,–,–,–
CC(=O)c1ccc(C(=O)N2CCC(NC(=O)c3nc(-n4cncn4)c4ccccc4n3)CC2)cc1,–,–,–,–,–,–,–,–,–,–,–,–,–,–,Active,Active,Active,Active,Active
